pKi: −log10 of the molar value. Values joined by “and” are separate entries in the source; they are usually repeats but may differ in a detail not shown here. Equal entries are not always repeated. Where two headings read alike, the source gives them in different places.
Tests used:
AasS [1] = assay: In vitro enzymatic activity of AasS (acyl-ACP formation, conformationally-sensitive urea PAGE, ImageJ semi-quantitation); assay type: biochemical, Vibrio harveyi
AasS [2] = biological target: AasS (Vibrio harveyi, UniProt Q00IB3); assay: Michaelis-Menten curves of AasS reaction with C10-AMS supplemented; assay type: biochemical
AasS (Vibrio harveyi, UniProt Q00IB3), sequence (Q00IB3 entry or part of it): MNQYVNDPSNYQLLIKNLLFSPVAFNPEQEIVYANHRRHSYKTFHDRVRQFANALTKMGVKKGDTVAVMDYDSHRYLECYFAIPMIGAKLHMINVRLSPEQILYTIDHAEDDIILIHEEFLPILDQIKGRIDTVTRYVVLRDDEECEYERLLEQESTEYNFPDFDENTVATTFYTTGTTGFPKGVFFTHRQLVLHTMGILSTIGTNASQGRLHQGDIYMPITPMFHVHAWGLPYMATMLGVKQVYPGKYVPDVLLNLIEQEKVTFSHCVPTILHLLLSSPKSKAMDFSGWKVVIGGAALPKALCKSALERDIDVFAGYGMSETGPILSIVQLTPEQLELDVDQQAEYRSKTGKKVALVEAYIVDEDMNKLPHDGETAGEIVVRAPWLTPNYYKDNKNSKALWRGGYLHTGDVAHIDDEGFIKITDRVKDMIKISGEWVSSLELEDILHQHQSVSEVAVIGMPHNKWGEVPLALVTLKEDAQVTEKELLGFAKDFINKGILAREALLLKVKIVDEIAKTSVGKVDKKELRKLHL
Procedure: To ascertain this hypothesis, we set up three combinations of AasS reaction with the varied order of C10-AMS inhibitor added in relative to C10 substrate. Namely, these included (i) addition of C10-AMS after C10 pre-incubation (S1B Fig), (ii) simultaneous addition of C10-AMS and C10 (S1C Fig), and (iii) supplementation of C10-AMS prior to C10 (S1D Fig). […] Next, we generated Michaelis-Menten curves of AasS enzyme to evaluate the inhibitory pattern of C10-AMS against ATP cofactor and C10 acyl substrate (S2 Fig).
Supplementary file ppat.1012376.s004.tif: S2 Fig Use of Michaelis-Menten curves to evaluate inhibition mode of AasS by the C10-AMS molecule. Michaelis-Menten curves of AasS reaction for the ATP cofactor (A) and C10 acyl substrate (C), on the condition of C10-AMS inhibitor supplemented at varied concentrations. C10-AMS was added at different level (ranging from 0, 125, 250, to 500 nM). Based on the dogma of Michaelis-Menten equation, a number of crosspoints of two vertically-intersecting dashed-lines (indicated with arrows) were given to determine the values of Km and Vmax. Of note, the coordinate (x,y) of the resultant crosspoint denotes the number (Km, Vmax /2). The values of Km and Vmax for AasS inhibited by C10-AMS in relative to ATP cofactor (B) and C10 substrate (D). […] Designations: Km, Michaelis constant; Vmax, Maximum velocity. (TIF)

[3] = increasing C10-AMS while varying ATP

## CCCCCCCCCC(=O)NS(=O)(=O)OC[C@H]1O[C@@H](n2cnc3c(N)ncnc32)[C@H](O)[C@@H]1O [C10-AMS]
AasS [1]
  inhibition of C10 fatty acylation, Average (S1E Fig, second block; order of addition not printed): 64.1924% and 78.0145% and 84.8528% and 86.8699%
  inhibition of C10 fatty acylation, Average (S1E Fig, third block; order of addition not printed): 82.6351% and 89.1845% and 93.1119% and 91.664%
AasS [1]; C10 substrate fixed at 80 μM, AasS 3 nM, semi-quantitative gel assay, read-out: inhibition constant (Ki) of C10-AMS vs AasS
  pKi: ~6.21 and 6.21 and ~6.22
AasS [1]; E-C7 600 μM, AasS 31.25 nM, read-out: Ki for E-C7 acyl substrate
  pKi: ~5.53 and 5.53
AasS [1]; condition 1#, C10 80 μM, AasS 3 nM, read-out: Ki, order-of-addition experiment
  pKi: 6.17
AasS [1]; condition 2#, C10 80 μM, AasS 3 nM, read-out: Ki, order-of-addition experiment
  pKi: 5.86
AasS [2]; 125 nM C10-AMS, ATP 0.125 (unit not given)
  AasS reaction rate, Michaelis-Menten curve for ATP, Average: 0.1701
AasS [2]; 125 nM C10-AMS, ATP 0.25
  AasS reaction rate, Michaelis-Menten curve for ATP, Average: 0.2829
AasS [2]; 125 nM C10-AMS, ATP 0.5
  AasS reaction rate, Michaelis-Menten curve for ATP, Average: 0.452
AasS [2]; 125 nM C10-AMS, ATP 1
  AasS reaction rate, Michaelis-Menten curve for ATP, Average: 0.6373
AasS [2]; 125 nM C10-AMS, ATP 2
  AasS reaction rate, Michaelis-Menten curve for ATP, Average: 0.8268
AasS [2]; 125 nM C10-AMS, C10 5 (unit not given)
  AasS reaction rate, Michaelis-Menten curve for C10 acyl substrate, Average: 0.6857
AasS [2]; 125 nM C10-AMS, C10 10
  AasS reaction rate, Michaelis-Menten curve for C10 acyl substrate, Average: 0.7781
AasS [2]; 125 nM C10-AMS, C10 20
  AasS reaction rate, Michaelis-Menten curve for C10 acyl substrate, Average: 0.8956
AasS [2]; 125 nM C10-AMS, C10 40
  AasS reaction rate, Michaelis-Menten curve for C10 acyl substrate, Average: 0.924
AasS [2]; 250 nM C10-AMS, ATP 0.125 (unit not given)
  AasS reaction rate, Michaelis-Menten curve for ATP, Average: 0.1042
AasS [2]; 250 nM C10-AMS, ATP 0.25
  AasS reaction rate, Michaelis-Menten curve for ATP, Average: 0.1505
AasS [2]; 250 nM C10-AMS, ATP 0.5
  AasS reaction rate, Michaelis-Menten curve for ATP, Average: 0.2695
AasS [2]; 250 nM C10-AMS, ATP 1
  AasS reaction rate, Michaelis-Menten curve for ATP, Average: 0.5022
AasS [2]; 250 nM C10-AMS, ATP 2
  AasS reaction rate, Michaelis-Menten curve for ATP, Average: 0.6244
AasS [2]; 250 nM C10-AMS, C10 5 (unit not given)
  AasS reaction rate, Michaelis-Menten curve for C10 acyl substrate, Average: 0.3359
AasS [2]; 250 nM C10-AMS, C10 10
  AasS reaction rate, Michaelis-Menten curve for C10 acyl substrate, Average: 0.4164
AasS [2]; 250 nM C10-AMS, C10 20
  AasS reaction rate, Michaelis-Menten curve for C10 acyl substrate, Average: 0.4772
AasS [2]; 250 nM C10-AMS, C10 40
  AasS reaction rate, Michaelis-Menten curve for C10 acyl substrate, Average: 0.4877
AasS [2]; 500 nM C10-AMS, ATP 0.125 (unit not given)
  AasS reaction rate, Michaelis-Menten curve for ATP, Average: 0.0721
AasS [2]; 500 nM C10-AMS, ATP 0.25
  AasS reaction rate, Michaelis-Menten curve for ATP, Average: 0.08914
AasS [2]; 500 nM C10-AMS, ATP 0.5
  AasS reaction rate, Michaelis-Menten curve for ATP, Average: 0.1634
AasS [2]; 500 nM C10-AMS, ATP 1
  AasS reaction rate, Michaelis-Menten curve for ATP, Average: 0.2728
AasS [2]; 500 nM C10-AMS, ATP 2
  AasS reaction rate, Michaelis-Menten curve for ATP, Average: 0.3695
AasS [2]; 500 nM C10-AMS, C10 5 (unit not given)
  AasS reaction rate, Michaelis-Menten curve for C10 acyl substrate, Average: 0.2278
AasS [2]; 500 nM C10-AMS, C10 10
  AasS reaction rate, Michaelis-Menten curve for C10 acyl substrate, Average: 0.2903
AasS [2]; 500 nM C10-AMS, C10 20
  AasS reaction rate, Michaelis-Menten curve for C10 acyl substrate, Average: 0.3259
AasS [2]; 500 nM C10-AMS, C10 40
  AasS reaction rate, Michaelis-Menten curve for C10 acyl substrate, Average: 0.3858
AasS [2]; [3]
  change of Michaelis constant (Km) of AasS: increase
  change of maximum velocity (Vmax) of AasS: declined
AasS [2]; varying ATP, C10-AMS 0-500 nM
  mode of inhibition against ATP ligand: mixed inhibition
AasS [2]; varying C10, C10-AMS 0-500 nM
  inhibitory pattern for the C10 acyl substrate: mixed type of inhibition

Source: publication PMC11271967, “An inhibitory mechanism of AasS, an exogenous fatty acid scavenger: Implications for re-sensitization of FAS II antimicrobials” (PLOS Pathogens, 2024)
